Source: PMC12935919 (Frontiers in Pharmacology, 2026)
No end group written: not given here.

Experiments:
[1] = tested on: Fc gamma-tagged myostatin/GDF-8; experiment: ELISA-based receptor binding assay; set-up: species or system human
Protocol: Plates were washed with PBST and blocked with 3% (w/v) BSA for 2 h at room temperature. They were then incubated for 2 h with Fc gamma-tagged myostatin/GDF-8 (Sino Biological, #50441-M01H) diluted in PBST. After another PBST wash, plates were treated with HRP-linked Anti-IgG Fc gamma (CST, #32935S, 1:1,000) for 2 h. Finally, color was developed with TMB (Sigma, #T0440), the reaction stopped with 1 M H2SO4, and absorbance was measured at 450 nm.

C2C12 cells = experiment: Myotube morphology during differentiation (microscopy, ImageJ); type: cell-based
Protocol: To induce C2C12 myotube differentiation, myoblasts were seeded in 6-well plates at 5 × 10^5 cells per well. Once reaching 90% confluency, they were cultured in DMEM supplemented with 2% horse serum (Thermo Fisher Scientific) and 1% penicillin-streptomycin. […] Differentiation was observed using an optical microscope (LEICA, 100×). Myotube morphology (length and diameter) was quantified in ImageJ (NIH) using the same images: myotube length was measured by tracing the long axis of each myotube (end-to-end), and myotube diameter was measured as the short-axis width at three positions along each myotube; the mean of the three width values was recorded as the diameter. For each experimental group, three randomly captured images (fields) were analyzed, and at least 15–20 myotubes per image were quantified under identical imaging settings.

EAEYEHL-OH [Myoki] was tested, and the binding to myostatin ([1]; Myoki coated at 125, 250, 500, and 1,000 μM) was “directly and concentration-dependently binds to myostatin”, the “myostatin binding compared to the control” value ([1]; Myoki-coated plates, ≥62.5 μM, absorbance 450 nm) was “more than 150%” and the “increase in myotube length compared to the control” value (C2C12 cells; Day 6, 100 μM, differentiation medium (2% horse serum), mean ± SD) was 200% ± 33.88%. The myotube length (C2C12 cells; Days 0-6, Myoki 1, 10 and 100 μM) was “increased concentration- and time-dependently”.
